The NIST ThermoML archive (doi:10.1021/je400408w)

How the values were obtained:
[1] = molar heat capacity at constant pressure; details: 100 kPa, Liquid
[2] = 101.33 kPa, Liquid; for speed of sound: Pulse-echo method; for mass density: Vibrating tube method
[3] = molar heat capacity at constant pressure; xn = mol fraction of the nth substance listed; details: 100 kPa, Liquid

CN1CCCC1=O [N-methylpyrrolidone]
Details	mass density, 293.15 K [kg/m3]	mass density, 298.15 K [kg/m3]	mass density, 303.15 K [kg/m3]	molar heat capacity at constant pressure, 293.15 K [J/K/mol]	molar heat capacity at constant pressure, 298.15 K [J/K/mol]	molar heat capacity at constant pressure, 303.15 K [J/K/mol]	speed of sound, 293.15 K [m/s]	speed of sound, 298.15 K [m/s]	speed of sound, 303.15 K [m/s]
[1]	–	–	–	165.44	166.22	166.92	–	–	–
[2]	1033.28	1028.26	1023.49	–	–	–	1565.6	1546.1	1527.3

O=C1CCCN1 [2-pyrrolidinone]
Details	mass density, 293.15 K [kg/m3]	mass density, 298.15 K [kg/m3]	mass density, 303.15 K [kg/m3]	molar heat capacity at constant pressure, 293.15 K [J/K/mol]	molar heat capacity at constant pressure, 298.15 K [J/K/mol]	molar heat capacity at constant pressure, 303.15 K [J/K/mol]	speed of sound, 293.15 K [m/s]	speed of sound, 298.15 K [m/s]	speed of sound, 303.15 K [m/s]
[1]	–	–	–	168.36	169.55	171.18	–	–	–
[2]	1111.28	1107.15	1103.06	–	–	–	1651.4	1635	1618.7

Cc1ccc(Cl)cc1 [4-chlorotoluene]
Details	mass density, 293.15 K [kg/m3]	mass density, 298.15 K [kg/m3]	mass density, 303.15 K [kg/m3]	molar heat capacity at constant pressure, 293.15 K [J/K/mol]	molar heat capacity at constant pressure, 298.15 K [J/K/mol]	molar heat capacity at constant pressure, 303.15 K [J/K/mol]	speed of sound, 293.15 K [m/s]	speed of sound, 298.15 K [m/s]	speed of sound, 303.15 K [m/s]
[1]	–	–	–	175.66	177.95	180.37	–	–	–
[2]	1069.27	1064.37	1059.46	–	–	–	1306.5	1288.4	1270.3

Cc1cccc(Cl)c1 [3-chlorotoluene] + CN1CCCC1=O
molar heat capacity at constant pressure [J/K/mol], [3]
Details	293.15 K	298.15 K	303.15 K
x2 = 0	175.21	176.46	177.67
x2 = 0.0566	176.9	178.51	180.44
x2 = 0.0976	178.07	179.91	182.2
x2 = 0.1345	179.19	181.07	183.53
x2 = 0.1724	180.12	182.1	184.76
x2 = 0.2187	181.31	183.26	186.04
x2 = 0.2565	182.12	184.06	186.9
x2 = 0.2934	182.85	184.82	187.61
x2 = 0.3342	183.56	185.46	188.27
x2 = 0.3745	184.2	185.98	188.79
x2 = 0.4187	184.71	186.4	189.2
x2 = 0.4568	184.96	186.73	189.36
x2 = 0.4986	185.09	186.84	189.47
x2 = 0.5386	185.06	186.75	189.31
x2 = 0.5783	184.78	186.58	189.08
x2 = 0.6112	184.42	186.25	188.68
x2 = 0.6542	183.69	185.54	187.92
x2 = 0.6923	182.87	184.66	187.08
x2 = 0.7328	181.83	183.55	185.83
x2 = 0.7786	179.95	181.8	183.95
x2 = 0.8189	178.11	180	182.01
x2 = 0.8324	177.43	179.29	181.17
x2 = 0.8621	175.85	177.56	179.36
x2 = 0.9078	172.92	174.43	175.98
x2 = 0.9427	170.28	171.62	172.92

Cc1ccccc1Cl [2-chlorotoluene]
Details	mass density, 293.15 K [kg/m3]	mass density, 298.15 K [kg/m3]	mass density, 303.15 K [kg/m3]	molar heat capacity at constant pressure, 293.15 K [J/K/mol]	molar heat capacity at constant pressure, 298.15 K [J/K/mol]	molar heat capacity at constant pressure, 303.15 K [J/K/mol]	speed of sound, 293.15 K [m/s]	speed of sound, 298.15 K [m/s]	speed of sound, 303.15 K [m/s]
[1]	–	–	–	176.43	178.21	180.01	–	–	–
[2]	1082.22	1077.34	1072.46	–	–	–	1316.8	1298.7	1280.7

O=C1CCCN1 [2-pyrrolidinone] + Cc1ccccc1Cl
[3], x1 = 1
Details	molar heat capacity at constant pressure [J/K/mol]
293.15 K	168.36
298.15 K	169.55
303.15 K	171.18

Cc1cccc(Cl)c1 [3-chlorotoluene]
Details	mass density, 293.15 K [kg/m3]	mass density, 298.15 K [kg/m3]	mass density, 303.15 K [kg/m3]	molar heat capacity at constant pressure, 293.15 K [J/K/mol]	molar heat capacity at constant pressure, 298.15 K [J/K/mol]	molar heat capacity at constant pressure, 303.15 K [J/K/mol]	speed of sound, 293.15 K [m/s]	speed of sound, 298.15 K [m/s]	speed of sound, 303.15 K [m/s]
[1]	–	–	–	175.21	176.46	177.67	–	–	–
[2]	1072.12	1067.23	1062.33	–	–	–	1313.6	1295.5	1277.3

O=C1CCCN1 [2-pyrrolidinone] + Cc1cccc(Cl)c1
[3], x1 = 1
Details	molar heat capacity at constant pressure [J/K/mol]
293.15 K	168.36
298.15 K	169.55
303.15 K	171.18

Cc1ccccc1Cl [2-chlorotoluene] + CN1CCCC1=O
molar heat capacity at constant pressure [J/K/mol], [3]
Details	293.15 K	298.15 K	303.15 K
x2 = 0	176.43	178.21	180.01
x2 = 0.0766	177.61	179.54	181.65
x2 = 0.1176	178.19	180.12	182.31
x2 = 0.1545	178.64	180.7	182.82
x2 = 0.1932	179.13	181.09	183.22
x2 = 0.2387	179.69	181.63	183.63
x2 = 0.2768	180.04	181.98	183.93
x2 = 0.3121	180.38	182.21	184.15
x2 = 0.3543	180.68	182.53	184.34
x2 = 0.3871	180.8	182.64	184.39
x2 = 0.4267	180.94	182.73	184.44
x2 = 0.4653	180.97	182.78	184.48
x2 = 0.5065	180.95	182.72	184.39
x2 = 0.5412	180.74	182.59	184.2
x2 = 0.5849	180.46	182.25	183.84
x2 = 0.6219	180.05	181.77	183.46
x2 = 0.6618	179.44	181.22	182.89
x2 = 0.7064	178.51	180.31	182.03
x2 = 0.7417	177.61	179.4	181.15
x2 = 0.7817	176.49	178.16	179.97
x2 = 0.8213	175.04	176.75	178.4
x2 = 0.8543	173.73	175.32	176.97
x2 = 0.8886	172.09	173.57	175.14
x2 = 0.9133	170.81	172.18	173.6
x2 = 0.9476	168.91	170.02	171.22

CN1CCCC1=O [N-methylpyrrolidone] + Cc1cccc(Cl)c1
[3], x1 = 1
Details	molar heat capacity at constant pressure [J/K/mol]
293.15 K	165.44
298.15 K	166.22
303.15 K	166.92
